Patent publication US20060241150A1, “P38 kinase inhibitor compositions and methods of using the same” (priority 2003, published 2006)
“Also recorded” adds a separate entry of the source.

What was measured:
Caspase 3 = experiment: Caspase-3/CPP32 colorimetric protease assay on lysates of HIV-1 infected cells; type: cell-based, human; settings: 89.6 or pNL4-3 virus; FIG. 1D
Description: (§1) FACS analysis was performed to identify cells undergoing apoptosis. Equal numbers of cells from each test group were collected for analysis. Apoptosis in experimental cells was analyzed by using an Annexin-V assay kit from PharMingen (CA). Data was analyzed by the CELL Quest program (Beckton-Dickinson, CA). Caspase 3 activity was determined using Caspase-3/CPP32 colorimetric protease assay kit according to the manufacturer's instructions (MBL, Nagoya, Japan).

[1] = tested on: HIV-1 induced apoptosis in human PBMCs; experiment: Annexin V-FITC FACS analysis of HIV-1 induced apoptosis in infected PBMCs; type: cell-based; settings: for inhibition of apoptosis induced by 4 subtype divergent primary HIV viral isolates: FIG. 1C
Description: (§2) The human CD4^+ T cell line Jurkat, or the monocyte line U937 were obtained from the American Type Culture Collection (Rockville, Md.). Cells were passaged in RPMI1640 (Gibco-BRL, MD) supplemented with 10% FBS, 2 mM L-glutamine, 100 U/ml penicillin G, and 100 μg/ml streptomycin maintained at 37° C. and 5% CO2 and verified routinely to certify that they were Mycoplasma negative. Human PBMCs were isolated from healthy HIV-seronegative donors by Ficoll-Hypaque separation (Pharmacia Biotech AB, Sweden). Peripheral blood mononuclear cells (PBMCs) from healthy adults were incubated for 2 days with 5 μg/ml phytohemagglutinin (PHA, Sigma) before the addition of 5 U/ml of human recombinant interleukin-2 (hrIL-2; R&D system, MN).
Viruses that were assayed in these studies included the pNL 4-3 (dual tropic) virus, which uses both CCR5 & CxCR4 receptors, and 89.6 (dual tropic), which uses CCR5 & CxCR4 receptors. In addition clade specific viruses were studied and these were obtained through the NIH AIDS research and Reference Reagent Program. For infection studies human PBMCs were isolated from normal, sero-negative donors, and infection was accomplished by incubating target cells with HIV-1 virus at a concentration of 100 TCID50/10^6 cells/ml. Culture supernatant was collected at 6, 12 and 24 hr intervals and assayed for virus production by measuring the p24 antigen released into the medium by ELISA (Coulter, FL) according to the manufacturer's instructions. Some data are presented as mean±SEM. For data presented as percent change, the base line (medium alone) value was subtracted from the value of each experimental condition as described in the legend.
as §1

p38 MAP Kinase = p38 MAP Kinase (Homo sapiens, UniProt Q16539); settings: cited from earlier work
c-Jun = experiment: Immunoblot of c-Jun in nuclear extracts of Nef treated cells; type: cell-based, human; settings: 1 μM
Description: Experimental cells were washed with ice-cold PBS, and the cells were lysed in protein lysis buffer (20 mM Tris (pH7.4), 150 mM NaCl, 1 mM EDTA, 1 mMEGTA, 1% triton, 2.5 mM sodium pyrophosphate, 1 mM […]-glycerolphasphate, 1 mM Na3Vp4, 1 μM/ml leupeptin and 1 mM phenyl methyl-sulfonyl fluoride). After a brief sonication, the lysates were clarified by centrifugation at 10,000 rpm and protein content was measured by the Bradford method (Bio-Rad, CA). Nuclear extracts were prepared using NE-PER nuclear and cytoplasmic extraction reagents (Pierce, USA) and the protein concentration of the nuclear extract was determined by BCA-200 protein assay kit (Pierce, USA) assayed following the manufacturer's instructions.
For Western blot analysis 50 μg of protein per lane was loaded onto acrylamide gels and separated by 12% SDS-PAGE and blotted to PVDF tmnsfer membrane. Immunoblot was carried out using the primary antibody (c-Jun, Phospho-p38 MAP Kinase (Thr180/Tyr182); Cell Signaling, MA, USA) and detected with secondary HRP-conjugated anti-rabbit IgG using Amersham ECL system. Further, the membrane was washed thoroughly using lxWestern re-probe buffer (Geno Tech, MO) and re immunoblotted with anti-actin (Calbiochem, CA) antibody, which recognizes the actin expression in cultured and serves cells as a positive control for gene expression and as an internal standard.

[2] = tested on: Nef driven FasL expression in Jurkat cells; experiment: FasL expression in Jurkat cells transfected with pNef; type: cell-based, human
From the text: (§3) Constructs containing Nef were generated using overlap extension PCR at the indicated codons and were cloned into the pCDNA3.1 vector (InVitrogen, CA). The HIV-1 proviral infectious vector pNL4-3 was obtained through the NIH AIDS research and Reference Reagent Program. This vector has been rendered Nef deficient by 5′ frame shift mutation in the Nef region (He, J., Choe, et al, J. Virol. 69, 6705-6711 (1995) which is incorporated herein by reference).
(§4) Single cell suspensions were washed in PBS (pH 7.2) containing 0.2% bovine serum albumin and 0.1% NaN3. Cells were incubated with PE labeled […]-CD95L antibody (NOK-1, 0.05 μg/ml, BD Pharmingen, CA, USA) antibody for 60 minutes at 4° C. Cells were washed with PBS and fixed with 2% paraformaldehyde and resuspended in 200 μl PBS and subjected to FACS (FL2 histogram) analysis (Beckton Dickinson, CA). Data were analyzed using the CELL Quest program (Beckton-Dickinson, CA).

[3] = tested on: FasL expression in HIV-infected Jurkat T cells; experiment: FasL expression by flow cytometry in HIV-infected Jurkat T cells; type: cell-based, human; settings: 1 μm, 89.6 or pNL4-3
Description: as §2
(§5) Viruses that were assayed in these studies included the pNL 4-3 (dual tropic) virus, which uses both CCR5 & CxCR4 receptors, and 89.6 (dual tropic), which uses CCR5 & CxCR4 receptors. In addition clade specific viruses were studied and these were obtained through the NIH AIDS research and Reference Reagent Program. […]
(§6) Single cell suspensions were washed in PBS (pH 7.2) containing 0.2% bovine serum albumin and 0.1% NaN3. […] Data were analyzed using the CELL Quest program (Beckton-Dickinson, CA).

[4] = tested on: FasL expression in HIV-infected PBMCs; experiment: FasL expression by flow cytometry in HIV-infected PBMCs; type: cell-based, human; settings: 1 μm; PBMC's; 89.6 or pNL4-3
Description: as §2, §5, §6

[5] = tested on: Nef mediated FasL expression in human PBMCs; experiment: p24gag / FasL flow cytometry in PBMCs infected with Nef positive pNL4-3 virus; type: cell-based; settings: 1 μM; PBMCs infected with pNL4-3 Wt (Nef positive) virus
From the text: as §3
To prepare infectious viral stocks, HIV-1 proviral DNA (pNL4-3 Wt and pNL4-3 and Nef delta) were generated as described Muthumani, K., et al, Journal of Biol. Chem. 277: 37820-37831 (2002). The viral titers were determined by infection of the human T cell line Jurkat using serially diluted virus supernatant. […] Viral stocks were normalized for virus content by infection and titration and stocks were stored in the presence of 10% FBS in aliquots at −80° C. until their use.
as §4

NF-κB = NF-κB dependent luciferase reporter assay in Nef transfected Jurkat cells; type: cell-based, human; settings: 1 μM; 24 hours
Description: (§7) Jurkat cells (1×10^6) were seeded onto a 60 mm culture dish (Falcon) and elctrotransfected the cells next day with NF-κB or AP-1 dependent reporter plasmid (10 μg) with pNef (10 μg), and/with or without Cpd4 (1 μM). After 24 hours, transfected cells were lysed with Reporter lysis Buffer (RLB) according to the manufacturer's instructions (Roche, USA). Luciferase activity was measured via LUMAT LB9501 (Berthold, USA). β-Gal levels were used to normalize for transfection efficiency with the chemiluminescent β-Gal reporter gene Assay kit (Roche, USA).

p38 MAPK = experiment: Immunoblot of p38 and phospho-p38 in Nef treated Jurkat cells; type: cell-based, human; settings: 1 μM
Description: Experimental cells were washed with ice-cold PBS, and the cells were lysed in protein lysis buffer (20 mM Tris (pH7.4), 150 mM NaCl, 1 mM EDTA, 1 mMEGTA, 1% triton, 2.5 mM sodium pyrophosphate, 1 mM □-glycerolphasphate, 1 mM Na3Vp4, 1 μM/ml leupeptin and 1 mM phenyl methyl-sulfonyl fluoride). After a brief sonication, the lysates were clarified by centrifugation at 10,000 rpm and protein content was measured by the Bradford method (Bio-Rad, CA).
For Western blot analysis 50 μg of protein per lane was loaded onto acrylamide gels and separated by 12% SDS-PAGE and blotted to PVDF tmnsfer membrane. […] Further, the membrane was washed thoroughly using lxWestern re-probe buffer (Geno Tech, MO) and re immunoblotted with anti-actin (Calbiochem, CA) antibody, which recognizes the actin expression in cultured and serves cells as a positive control for gene expression and as an internal standard.

[6] = tested on: apoptosis of CD8+ T cells co-cultured with HIV infected macrophages; experiment: Bystander CD8+ T cell apoptosis induced by HIV infected macrophages (Annexin V); type: cell-based, human; settings: 1 μM; latex bead stimulated 89.6 infected macrophages with autologous CD8+ T cells
Description: Monocyte-derived macrophages (MDM) were prepared from PBMCs obtained from healthy donors and incubated at 37° C. in polystyrene T-75 flasks for 4-10 hrs at 37° C. After the incubation the cells were washed with RPMI 1640 for 3 times to remove non-adherent cells. The adherent monocytes were detached with ethylene diamine tetra-acetic acid (EDTA) and the purity of the monocyte cell populations thus isolated was >98% as determined by FACS staining for CD14^+. The CD14^+ positive cells were incubated in 6-well plates at a density of 1×10^6 cells/ml in RPMI medium supplemented with 10% human serum.
Human PBMC's were isolated from healthy HIV-seronegative donors as described above. Purified CD8^+ T cells were isolated from PBMC by negative immunoselection using magnetic beads (Dynal, CA), for depletion of CD4^+ T cells. The puity of the isolated CD8+ T cells was determined to be by flow >99% pure. MDM were purified from freshly isolated PBMC as described above. MDM cells were cultured in 6 well plates at 0.5×10^6 cells/ml/well with 10 ng/ml M-CSF (R&D systems, MN) in RPMI 1640/10% Human serum. […] The analysis was performed on a gated CD8^+ T-cells (R1) and further CD8^+ positive cells were analyzed for the CD8^+/Annexin V positive cells (R2 population) in all experimental samples to further analysis the Apoptosis.

AP-1 = AP-1 dependent luciferase reporter assay in Nef transfected Jurkat cells; type: cell-based, human; settings: 1 μM; 24 hours
Description: as §7

p38 MAP Kinase, sequence (Q16539 whole entry): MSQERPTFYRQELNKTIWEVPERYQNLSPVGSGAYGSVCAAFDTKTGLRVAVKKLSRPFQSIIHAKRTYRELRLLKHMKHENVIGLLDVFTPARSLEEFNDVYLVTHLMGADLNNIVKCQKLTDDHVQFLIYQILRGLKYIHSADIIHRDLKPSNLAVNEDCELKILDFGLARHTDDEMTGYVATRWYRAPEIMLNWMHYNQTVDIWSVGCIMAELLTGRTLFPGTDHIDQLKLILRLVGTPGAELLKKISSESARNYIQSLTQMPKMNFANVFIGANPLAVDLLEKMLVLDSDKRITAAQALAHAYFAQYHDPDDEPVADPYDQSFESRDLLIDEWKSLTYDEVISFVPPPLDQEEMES

C[S+]([O-])c1ccc(-c2nc(-c3ccc(F)cc3)c(-c3ccncc3)[nH]2)cc1 (stereo not drawn) [SB203580, 4-[5-(4-Fluoro-phenyl)-2-(4-methanesulfinyl-phenyl)-3H-imidazol4-yl]-pyridine, reference compound]
inhibition of Caspase 3 activity (Caspase 3): ~50%
inhibition of apoptosis induced by 4 subtype divergent primary HIV viral isolates ([1]; 1 μM): could inhibit apoptosis
inhibition at 1 µM ([1]; Homo sapiens, PBMC, 96 h, read-out: inhibition of apoptosis driven by virus (Annexin V-FITC)): > 50%

OCCC#Cc1nc(-c2ccc(F)cc2)c(-c2ccncc2)n1CCCc1ccccc1 [Cpd4, 4-(4-Fluorophenyl)-2-(4-hydroxybutyn-1-yl)-1-(3-phenylpropyl)-5-(4-pyridyl)imidazole]
inhibition of p38 MAP Kinase (p38 MAP Kinase; at 1 μM concentrations): inhibit p38 MAP Kinase
anti-p38 activity compared with SB203580 (p38 MAP Kinase): higher anti-p38 activity
Nef mediated phosphorylation / activation of c-Jun (c-Jun): decrease in the phosphorylated status of c-Jun; also recorded: can be blocked
inhibition of Nef driven induction of FasL [2]: potent inhibition of Nef driven induction of FasL; also recorded: thoroughly repressed Nef-induced FasL expression; also recorded: highly suppressed; also recorded: could prevent Nef driven FasL activation
inhibition of FasL induction [3]: Strong inhibition of FasL induction; also recorded: severely repressed the surface expression of FasL
inhibition of FasL induction [4]: Strong inhibition of FasL induction; also recorded: severely repressed the surface expression of FasL
inhibition of Nef mediated FasL expression [5]: aborted completely; also recorded: completely inhibited
blocking of Nef activation of NF-κB reporter (NF-κB): effectively blocked this effect
inhibition of Caspase 3 activity (Caspase 3): ~80%
total levels of p38 (p38 MAPK): did not alter the total levels of p38
Nef induced phosphorylation of p38 (p38 MAPK; 15-min exposure): no detectable increase in the phosphorylation of p38
blocking of bystander CD8+ T cell apoptosis [6]: effectively blocked bystander apoptosis; also recorded: could prevent Nef driven apoptosis of bystander cells
blocking of Nef activation of AP-1 reporter (AP-1): effectively blocked this effect
inhibition of apoptosis driven by virus (Annexin V-FITC) ([1]; 1 μM, 89.6 or pNL4-3 virus, 4 days post infection): over 80%
inhibition of apoptosis induced by 4 subtype divergent primary HIV viral isolates ([1]; 1 μM): could inhibit apoptosis
